In patent US7560491B2, “Z-stilbenes derivatives and the pharmaceutical composition thereof” (Taipei Medical University, priority 2006, dated 2009):

| melting point | SMILES |
| --- | --- |
| 83.2 to 86.3 °C | COc1ccc(/C=C\c2cc(OC)cc(OC)c2N)cc1 |
| 62.7 to 63.8 °C | COc1ccc(/C=C\c2cc(OC)c(OC)cc2N)cc1 |
| 97.3 to 98.1 °C | COc1ccc(/C=C\c2cc(OC)c(OC)c(OC)c2N)cc1N |
